What is called Ki is a measure of affinity in units of concentration, obtained from inhibition or displacement.

This is an account of results in PMC6270924, “A New Urease Inhibitor from Viola betonicifolia” (Molecules, 2014).

The structures appear in SMILES notation.

This assay addresses jack bean urease (Canavalia ensiformis, UniProt P07374). Nature of the assay: urease inhibition by indophenol (Weatherburn) ammonia assay; Lineweaver-Burk, secondary replot and Dixon plot kinetics (IC50 […]). The class given is biochemical.

jack bean urease, sequence (P07374 whole entry, looked up): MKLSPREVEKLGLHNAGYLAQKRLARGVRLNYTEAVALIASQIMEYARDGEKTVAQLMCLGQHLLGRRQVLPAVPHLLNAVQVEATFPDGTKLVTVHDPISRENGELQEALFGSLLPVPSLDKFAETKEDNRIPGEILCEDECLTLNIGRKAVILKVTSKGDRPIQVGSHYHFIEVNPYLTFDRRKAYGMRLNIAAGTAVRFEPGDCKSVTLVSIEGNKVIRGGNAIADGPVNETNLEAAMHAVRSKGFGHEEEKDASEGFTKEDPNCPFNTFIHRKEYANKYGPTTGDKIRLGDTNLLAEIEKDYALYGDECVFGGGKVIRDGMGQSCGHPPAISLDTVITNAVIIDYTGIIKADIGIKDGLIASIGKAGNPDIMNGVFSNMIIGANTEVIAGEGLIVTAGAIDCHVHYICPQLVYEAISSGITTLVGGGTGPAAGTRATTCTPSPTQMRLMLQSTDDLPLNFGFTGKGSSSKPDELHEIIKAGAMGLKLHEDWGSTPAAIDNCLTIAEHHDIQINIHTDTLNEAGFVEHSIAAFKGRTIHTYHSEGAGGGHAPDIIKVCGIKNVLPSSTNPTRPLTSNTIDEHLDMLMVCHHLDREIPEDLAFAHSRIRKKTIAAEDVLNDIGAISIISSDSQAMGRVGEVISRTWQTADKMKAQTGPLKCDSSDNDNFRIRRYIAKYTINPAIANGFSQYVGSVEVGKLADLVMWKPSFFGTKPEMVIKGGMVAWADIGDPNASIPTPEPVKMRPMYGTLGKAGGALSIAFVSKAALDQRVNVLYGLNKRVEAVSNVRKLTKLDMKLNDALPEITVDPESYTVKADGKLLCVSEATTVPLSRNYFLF

For the compound `C=C[C@@H](C1=CC(=O)C=C(OC)C1=O)c1ccccc1` [compound 1, 3-methoxydalbergione], the Ki worked out at 138.16 ± 0.06 µM.
